# Reference: patent publication US20150080475A1, “Memantine Protects Inflammation-Related Degeneration of Dopamine Neurons Through Inhibition of Over-Activated Microglia and Release of Neurotrophic Factors From Astroglia” (priority 2009, published 2015)
# Experiments:
# GDNF = experiment: Western blot of GDNF protein in astroglial cells; format: cell-based, rat; conditions: memantine 10 μM
# Description: GDNF mediated memantine-induced neurotrophic effects. Rat primary astroglia were exposed to 10 μM memantine for various time points ranging from 0 minute to 24 h. (FIG. 5A) Total RNA was extracted. […] (FIG. 5B) The ratio of densitometry values of GDNF and β-actin was analyzed and normalized to 0 min value. (FIG. 5C) Total protein of astroglial cells was extracted. Western blot analyses were performed with the antibody to GDNF. GAPDH was used as loading control. (FIG. 5D) The ratio of densitometry values of GDNF and GAPDH was analyzed and normalized to 0 min value. Values were expressed as mean±S.E.M. of three independent experiments. *p<0.05, **p<0.01, ***p<0.001, Bonferroni t-test vs 0 min for FIG. 5B and FIG. 5D; (FIG. 5E) Neuron-glia cultures were treated with either control goat IgG (isotype Ab), or goat anti-GDNF, combined with memantine (10 μM) treatment. DA uptake capacity was measured 7 days later. Results were expressed as a percentage of the vehicle-treated control cultures and represented mean±S.E.M. of three independent experiments performed in triplicate. *p<0.05, **p<0.01, ***p<0.001, Bonferroni's test vs control; #p<0.05, Bonferroni t-test vs memantine treated cultures.
# Mixed-glia cultures were first prepared from brains of 1-day-old Fisher 344 rat pups, as described previously. Briefly, mechanically dissociated brain cells (5×10^7) were seeded onto 150-cm^2 culture flasks in Dulbecco's modified Eagle's medium containing 10% heat-inactivated FBS, 2 mM L-glutamine, 1 mM sodium pyruvate, 100 μM non-essential amino acids, 50 U/ml penicillin and 50 μg/ml streptomycin. The cultures were maintained at 37° C. in a humidified atmosphere of 5% CO2 and 95% air, and medium was replenished 4 days after the initial seeding. Upon reaching confluence (usually 12-14 days later), microglia were detached from astrocytes by shaking the flasks at a speed of 180 r.p.m. for 5 h. Astrocytes were then detached with trypsin-ethylenediaminetetraacetic acid (EDTA) and seeded in the same culture medium. […]
# DA neurons = experiment: [3H] DA uptake, MMT alone in rat mesencephalic neuron-glia cultures (neurotrophic effect); format: cell-based; conditions: for increase of DA uptake capacity by MMT alone: one week
# Description: Rat and mouse ventral mesencephalic neuron-glia cultures were prepared using a described protocol (Gao H M, Hong J S, Zhang W Q, Liu B (2002) Distinct Role for Microglia in Rotenone-Induced Degeneration of Dopaminergic Neurons. J Neurosci 22(3):782-790). Briefly, midbrain tissues were dissected from day 14 Fisher 344 rat embryos or day 14 mouse embryos (PHOX^+/+ or PHOX^−/−). Cells were dissociated via gentle mechanical trituration in minimum essential medium (MEM) and immediately seeded (5×10^5/well) in poly D-lysine (20 μg/mL) precoated 24-well plates. Cells were seeded in maintenance media and treated with the treatment media described previously (Gao H M, Hong J S, Zhang W Q, Liu B (2002) Distinct Role for Microglia in Rotenone-Induced Degeneration of Dopaminergic Neurons. J Neurosci 22(3):782-790). Three days after seeding, the cells were replenished with 500 μL of fresh maintenance media. Cultures were exposed 7 days after seeding. At the time of treatment, the composition of the cultures was approximately 48% astrocytes, 11% microglia, 40% neurons, and 1 to 1.5% TH-immunoreactive (ir) neurons.
# Cells were incubated in Krebs-Ringer buffer (16 mM NaH2PO4, 1.2 mM MgSO4, 1.3 mM EDTA, […], for 21 min at 37° C. with 1 μM [^3H] DA. Nonspecific uptake was blocked for DA with 10 μM mazindole. After incubation, cells were washed three times with 1 mL/well of ice-cold Krebs-Ringer buffer. Cells were then lysed with 0.5 mL/well of 1 N NaOH and mixed with 15 mL of scintillation fluid. Radioactivity was measured on a scintillation counter, where specific [^3H] DA uptake was calculated by subtracting the mazindole.
# Rat mesencephalic neuron-glia cultures were pretreated for 30 min with vehicle or 1, 3, 10 μM MMT before adding LPS (2.5 to 5 ng/ml) to the cultures. One week later, the neurotoxic effect of LPS on DA neurons were assessed by both [H^3] DA uptake, which measures the functional capacity of high affinity uptake of DA cells and cell count of tyrosine hydroxylase-positive (TH-ir) cells. [H^3] […]
compound,measurement,setting,value
"CC12CC3CC(C)(C1)CC(N)(C3)C2.Cl [MMT, 1-amino-3,5-dimethyladamantane hydrochloride]",GDNF protein level vs vehicle-treated control,GDNF; 6 h,significantly increased level
same,GDNF protein level vs vehicle-treated control,GDNF; 12 h,peaked
same,GDNF protein level vs vehicle-treated control,GDNF; 24 h,still expressed
same,increase of DA uptake capacity by MMT alone,DA neurons; 3 μM MMT,30%
same,increase of DA uptake capacity by MMT alone,DA neurons; 10 μM MMT,80%
same,effect against spontaneous DA neurons death,"DA neurons; MMT alone, rat primary midbrain neuron-glia cultures",dose-dependent surviving-promoting effects
